Here are results for 21 compounds from patent US5840697A, “Peptide inhibitors of calmodulin” (Torrey Pines Institute for Molecular Studies, priority 1996, dated 1998).

Structures are written as SMILES. Square brackets hold non-standard residues; d marks the D form. Peptide text beside a SMILES is read from it.

The first test concerns the target calmodulin (Homo sapiens, UniProt P0DP23). As to the kind of experiment: calcium-dependent phosphodiesterase assay (calmodulin activity). In kind it is biochemical. To be noted: 50 μM peptide; PDE without calmodulin = 100%, calmodulin without peptide = 0%. The method, then: In the calcium dependent phosphodiesterase assay, calmodulin can be assayed by its ability to stimulate phosphodiesterase activity as determined by a two-step assay procedure illustrated by reactions (1) and (2) below. [drawing 1]
During the first step of the assay cyclic adenosine 3'5'-monophosphate (cAMP) is incubated with calcium-activated phosphodiesterase (Cal-PDE), which hydrolyses the 3'bond producing adenosine 5'-monophosphate (5'-AMP). During the second step, 5'-AMP is quantitatively converted into adenosine and inorganic phosphate (Pi) through the action of a 5-nucleotidase. The reaction is followed by the measurement of the Pi formed by reading the absorbance at 660 nm after reacting with ammonium molybdate. The amount of Pi formed is directly related to the phosphodiesterase activity which depends on the level of activation by calmodulin.
To sample assay tubes were added the following components: assay buffer, 25 ul; CaCl2, 5 ul; 5'-nucleotidase, 7.5 ul (stock solution is 10 units/ml); calmodulin 5 units; calmodulin inhibitor peptides to obtain the desired final concentration of 50 μM. The volume was then made up to 200 ul with water. Control blanks were prepared replacing the peptides with water. The added components were thoroughly mixed and the tubes incubated at 30° C. for 10 min. […] The samples were centrifuged to remove the protein precipitate and the 50 ul of the supernatant was withdrawn for phosphate measurement. […] The absorbance of the solution were read at 660 nm using water as a blank, identified as control "Calmo."
The two controls used in the assay, one without and one with calmodulin, as indicated in FIG. 1 and Table I were as follows,: (1) PDE:
These three controls were used in the calcium-dependent phosphodiesterase assay for reproducibility of the assay.
In addition to the calcium-dependent phosphodiesterase assay data, IC50 values were determined for many of the peptides. The assay carried out for the determination in the IC50 values differed from the above screening assay by the concentration of the peptides being tested.
(3) TFP: trifluoperazine; and (4) Calmidasolium: (1-[bis-(4-chlorophenyl)methyl]-3[-2-(2,4-dichlorophenyl)-2[(2,4-dichlorophenyl)methoxy]-ethyl]-1H-imidazolium chloride. The IC50 values were calculated using sigmoidal curve software (Graphpad, ISI; San Diego, Calif.) using the % inhibition at different mixture concentrations (see protocol for determination of % inhibition).
The (L)-amino acid counterpart for five (5) of the all (D)-amino acid peptides identified from the PS-SCL were synthesized in order to study the stereoselectivity of the inhibition.
By inhibition is commonly meant the share of the control response that was lost under treatment. With `CC[C@@H](C)[C@@H](NC(=O)[C@@H](Cc1c[nH]c2ccccc12)NC(=O)[C@@H](CC(C)C)NC(C)=O)C(=O)N[C@H](Cc1c[nH]cn1)C(=O)N[C@H](Cc1c[nH]cn1)C(=O)N[C@H](CCCNC(=N)N)C(N)=O` [Ac-(D)Leu-(D)Trp-(D)Ile-(D)His-(D)His-(D)Arg-NH2] (Ac-[dL][dW][dI][dH][dH][dR]-NH2), the inhibition at 50 µM is 79%.

The same test, now with this note: (L)-amino acid peptides of Table II.
Turning to `CC(=O)N[C@@H](CC(C)C)C(=O)N[C@@H](Cc1c[nH]c2ccccc12)C(=O)N[C@@H](CCCNC(=N)N)C(=O)N[C@@H](Cc1c[nH]cn1)C(=O)N[C@@H](Cc1c[nH]cn1)C(=O)N[C@@H](Cc1c[nH]c2ccccc12)C(N)=O` [Ac-Leu-Trp-Arg-His-His-Trp-NH2] (Ac-LWRHHW-NH2), the “calmodulin inhibitory activity, in words” value was “especially high activity”.

Staying with this test, now noted: Table I; assayed at 75, 50 and 12.5 μM, average of repeated assays; read-out: Average IC50.
In general, IC50 refers to the point on the concentration scale where inhibition reaches its midpoint. With `CC[C@@H](C)[C@@H](NC(=O)[C@@H](CCC(N)=O)NC(=O)[C@@H](CC(C)C)NC(C)=O)C(=O)N[C@@H](C(=O)N[C@H](Cc1c[nH]cn1)C(=O)N[C@H](Cc1c[nH]c2ccccc12)C(N)=O)[C@H](C)CC` [Ac-(D)Leu-(D)Gln-(D)Ile-(D)Ile-(D)His-(D)Trp-NH2] (Ac-[dL][dQ][dI][dI][dH][dW]-NH2), the IC50 was 17 µM.
For the compound `CC[C@@H](C)[C@@H](NC(=O)[C@@H](CCCNC(=N)N)NC(=O)[C@@H](CCC(N)=O)NC(=O)[C@@H](CC(C)C)NC(C)=O)C(=O)N[C@H](Cc1c[nH]cn1)C(=O)N[C@H](CCCNC(=N)N)C(N)=O` [Ac-(D)Leu-(D)Gln-(D)Arg-(D)Ile-(D)His-(D)Arg-NH2] (Ac-[dL][dQ][dR][dI][dH][dR]-NH2), the concentration for half-maximal inhibition (IC50) stood at 26 µM.
Take `CC[C@@H](C)[C@@H](NC(=O)[C@@H](Cc1c[nH]c2ccccc12)NC(=O)[C@@H](CC(C)C)NC(C)=O)C(=O)N[C@H](Cc1c[nH]cn1)C(=O)N[C@H](Cc1c[nH]cn1)C(=O)N[C@H](CCCNC(=N)N)C(N)=O` [Ac-(D)Leu-(D)Trp-(D)Ile-(D)His-(D)His-(D)Arg-NH2] (Ac-[dL][dW][dI][dH][dH][dR]-NH2): the IC50 was 20 µM.
With `CC[C@@H](C)[C@@H](NC(=O)[C@@H](CCC(N)=O)NC(=O)[C@@H](CC(C)C)NC(C)=O)C(=O)N[C@H](Cc1c[nH]cn1)C(=O)N[C@H](Cc1c[nH]cn1)C(=O)N[C@H](CCCNC(=N)N)C(N)=O` [Ac-(D)Leu-(D)Gln-(D)Ile-(D)His-(D)His-(D)Arg-NH2] (Ac-[dL][dQ][dI][dH][dH][dR]-NH2), the half-maximal inhibitory concentration (IC50) is 20 µM.
For `CC(=O)N[C@H](CC(C)C)C(=O)N[C@H](CCC(N)=O)C(=O)N[C@H](CCCNC(=N)N)C(=O)N[C@H](Cc1c[nH]cn1)C(=O)N[C@H](Cc1c[nH]cn1)C(=O)N[C@H](Cc1c[nH]c2ccccc12)C(N)=O` [Ac-(D)Leu-(D)Gln-(D)Arg-(D)His-(D)His-(D)Trp-NH2] (Ac-[dL][dQ][dR][dH][dH][dW]-NH2), the IC50 came to 25 µM.
With `CC[C@@H](C)[C@@H](NC(=O)[C@@H](Cc1c[nH]c2ccccc12)NC(=O)[C@@H](CC(C)C)NC(C)=O)C(=O)N[C@@H](C(=O)N[C@H](CC(C)C)C(=O)N[C@H](CCCNC(=N)N)C(N)=O)[C@H](C)CC` [Ac-(D)Leu-(D)Trp-(D)Ile-(D)Ile-(D)Leu-(D)Arg-NH2] (Ac-[dL][dW][dI][dI][dL][dR]-NH2), the IC50 was determined as 7.2 µM.
For the compound `CC(=O)N[C@H](CC(C)C)C(=O)N[C@H](CCC(N)=O)C(=O)N[C@H](CCCNC(=N)N)C(=O)N[C@H](Cc1c[nH]cn1)C(=O)N[C@H](CC(C)C)C(=O)N[C@H](CCCNC(=N)N)C(N)=O` [Ac-(D)Leu-(D)Gln-(D)Arg-(D)His-(D)Leu-(D)Arg-NH2] (Ac-[dL][dQ][dR][dH][dL][dR]-NH2), the IC50 was 25 µM.
As to `CC[C@@H](C)[C@@H](NC(=O)[C@@H](Cc1c[nH]c2ccccc12)NC(=O)[C@@H](CC(C)C)NC(C)=O)C(=O)N[C@H](Cc1c[nH]cn1)C(=O)N[C@H](CC(C)C)C(=O)N[C@H](CCCNC(=N)N)C(N)=O` [Ac-(D)Leu-(D)Trp-(D)Ile-(D)His-(D)Leu-(D)Arg-NH2] (Ac-[dL][dW][dI][dH][dL][dR]-NH2), the IC50 stood at 7.8 µM.
On to `CC[C@@H](C)[C@@H](NC(=O)[C@@H](CCC(N)=O)NC(=O)[C@@H](CC(C)C)NC(C)=O)C(=O)N[C@@H](C(=O)N[C@H](CC(C)C)C(=O)N[C@H](CCCNC(=N)N)C(N)=O)[C@H](C)CC` [Ac-(D)Leu-(D)Gln-(D)Ile-(D)Ile-(D)Leu-(D)Arg-NH2] (Ac-[dL][dQ][dI][dI][dL][dR]-NH2), for which the IC50 was 20 µM.
`CC[C@@H](C)[C@@H](NC(=O)[C@@H](Cc1c[nH]c2ccccc12)NC(=O)[C@@H](CC(C)C)NC(C)=O)C(=O)N[C@@H](C(=O)N[C@H](Cc1c[nH]cn1)C(=O)N[C@H](Cc1c[nH]c2ccccc12)C(N)=O)[C@H](C)CC` [Ac-(D)Leu-(D)Trp-(D)Ile-(D)Ile-(D)His-(D)Trp-NH2] (Ac-[dL][dW][dI][dI][dH][dW]-NH2): the 50% inhibitory concentration (IC50) turned out to be 8.6 µM.
Turning to `CC(=O)N[C@H](CC(C)C)C(=O)N[C@H](Cc1c[nH]c2ccccc12)C(=O)N[C@H](CCCNC(=N)N)C(=O)N[C@H](Cc1c[nH]cn1)C(=O)N[C@H](Cc1c[nH]cn1)C(=O)N[C@H](CCCNC(=N)N)C(N)=O` [Ac-(D)Leu-(D)Trp-(D)Arg-(D)His-(D)His-(D)Arg-NH2] (Ac-[dL][dW][dR][dH][dH][dR]-NH2), the IC50 worked out at 8.1 µM.
In the case of `CC(=O)N[C@H](CC(C)C)C(=O)N[C@H](CCC(N)=O)C(=O)N[C@H](CCCNC(=N)N)C(=O)N[C@H](Cc1c[nH]cn1)C(=O)N[C@H](CC(C)C)C(=O)N[C@H](Cc1c[nH]c2ccccc12)C(N)=O` [Ac-(D)Leu-(D)Gln-(D)Arg-(D)His-(D)Leu-(D)Trp-NH2] (Ac-[dL][dQ][dR][dH][dL][dW]-NH2), the IC50 came out at 20 µM.
Consider `CC(=O)N[C@H](CC(C)C)C(=O)N[C@H](Cc1c[nH]c2ccccc12)C(=O)N[C@H](CCCNC(=N)N)C(=O)N[C@H](Cc1c[nH]cn1)C(=O)N[C@H](CC(C)C)C(=O)N[C@H](CCCNC(=N)N)C(N)=O` [Ac-(D)Leu-(D)Trp-(D)Arg-(D)His-(D)Leu-(D)Arg-NH2] (Ac-[dL][dW][dR][dH][dL][dR]-NH2), for which the IC50 was 16 µM.
As to `CC(=O)N[C@H](CC(C)C)C(=O)N[C@H](CCC(N)=O)C(=O)N[C@H](CCCNC(=N)N)C(=O)N[C@H](Cc1c[nH]cn1)C(=O)N[C@H](Cc1c[nH]cn1)C(=O)N[C@H](CCCNC(=N)N)C(N)=O` [Ac-(D)Leu-(D)Gln-(D)Arg-(D)His-(D)His-(D)Arg-NH2] (Ac-[dL][dQ][dR][dH][dH][dR]-NH2), the IC50 is 20 µM.
In the case of `CC[C@@H](C)[C@@H](NC(=O)[C@@H](CCC(N)=O)NC(=O)[C@@H](CC(C)C)NC(C)=O)C(=O)N[C@@H](C(=O)N[C@H](Cc1c[nH]cn1)C(=O)N[C@H](CCCNC(=N)N)C(N)=O)[C@H](C)CC` [Ac-(D)Leu-(D)Gln-(D)Ile-(D)Ile-(D)His-(D)Arg-NH2] (Ac-[dL][dQ][dI][dI][dH][dR]-NH2), the IC50 came to 35 µM.
As for `CC[C@@H](C)[C@@H](NC(=O)[C@@H](CCC(N)=O)NC(=O)[C@@H](CC(C)C)NC(C)=O)C(=O)N[C@H](Cc1c[nH]cn1)C(=O)N[C@H](Cc1c[nH]cn1)C(=O)N[C@H](Cc1c[nH]c2ccccc12)C(N)=O` [Ac-(D)Leu-(D)Gln-(D)Ile-(D)His-(D)His-(D)Trp-NH2] (Ac-[dL][dQ][dI][dH][dH][dW]-NH2), the IC50 came to 27 µM.
As for `Clc1ccc(C(c2ccc(Cl)cc2)n2cc[n+](CC(OCc3ccc(Cl)cc3Cl)c3ccc(Cl)cc3Cl)c2)cc1` (centres unmarked) [Calmidazolium, (1-[bis-(4-chlorophenyl)methyl]-3[-2-(2,4-dichlorophenyl)-2[(2,4-dichlorophenyl)methoxy]-ethyl]-1H-imidazolium chloride, reference compound], the half-inhibitory concentration (IC50) was 9 µM.
Take `CC[C@@H](C)[C@@H](NC(=O)[C@@H](Cc1c[nH]c2ccccc12)NC(=O)[C@@H](CC(C)C)NC(C)=O)C(=O)N[C@@H](C(=O)N[C@H](Cc1c[nH]cn1)C(=O)N[C@H](CCCNC(=N)N)C(N)=O)[C@H](C)CC` [Ac-(D)Leu-(D)Trp-(D)Ile-(D)Ile-(D)His-(D)Arg-NH2] (Ac-[dL][dW][dI][dI][dH][dR]-NH2): the IC50 worked out at 5.1 µM.
Take `CC[C@@H](C)[C@@H](NC(=O)[C@@H](CCCNC(=N)N)NC(=O)[C@@H](CCC(N)=O)NC(=O)[C@@H](CC(C)C)NC(C)=O)C(=O)N[C@H](CC(C)C)C(=O)N[C@H](CCCNC(=N)N)C(N)=O` [Ac-(D)Leu-(D)Gln-(D)Arg-(D)Ile-(D)Leu-(D)Arg-NH2] (Ac-[dL][dQ][dR][dI][dL][dR]-NH2): the IC50 stood at 35 µM.

The test is the same for the next values; noted with them: Table II; (L)-amino acid peptides, concentrations 0.2 to 50.0 μM; read-out: IC50.
As for `CC(=O)N[C@@H](CC(C)C)C(=O)N[C@@H](Cc1c[nH]c2ccccc12)C(=O)N[C@@H](CCCNC(=N)N)C(=O)N[C@@H](Cc1c[nH]cn1)C(=O)N[C@@H](Cc1c[nH]cn1)C(=O)N[C@@H](Cc1c[nH]c2ccccc12)C(N)=O` [Ac-Leu-Trp-Arg-His-His-Trp-NH2] (Ac-LWRHHW-NH2), the IC50 was 1.16 µM.
In the case of `CC[C@H](C)[C@H](NC(=O)[C@H](CCC(N)=O)NC(=O)[C@H](CC(C)C)NC(C)=O)C(=O)N[C@@H](Cc1c[nH]cn1)C(=O)N[C@@H](CC(C)C)C(=O)N[C@@H](CCCNC(=N)N)C(N)=O` [Ac-Leu-Gln-Ile-His-Leu-Arg-NH2] (Ac-LQIHLR-NH2), the IC50 amounted to 87 µM.
